According to US12012401B2, “Process for preparing N-(5-(3-(7-(3-fluorophenyl)-3H-imidazo[4,5-c]pyridin-2-yl)-1H-indazol-5-yl)pyridin-3-yl)-3-methylbutanamide” (BioSplice Therapeutics, Inc., priority 2016, dated 2024):
Each block holds one compound with its values, some of them ahead of it.

How the values were obtained:
Format in all cases: physicochemical
[1] = Heating in DSC chamber, then XRD scan (form conversion)
Protocol: The Form 1 solid was heated in a DSC chamber to 305° C. (past the endotherm/exotherm around 280° C.), and then scanned by XRD. […] Thus, the endotherm/exotherm around 280° C. might be due to melting/crystallization events.
The Form 2 solid was heated in a DSC machine to 90° C. (past the endotherm between 50-100° C.); to 270° C. (past the endotherm/exotherm around 240° C.); and finally to 330° C. (past the exotherm […]). The residual solid was analyzed by XRD. […] The endotherm between 50-100° C. might be free solvent or hydrate. […] Thus, the exotherm around 290° C. was a re-crystallization event. According to an XRD and DSC overlay, the behavior of Form 2* was similar to Form 2.
Form 13 solid was heated in a DSC chamber to 170° C. (past the endotherm between 50-100° C.), and then scanned by XRD. […] It can be concluded that the endotherm between 50-100° C. is due to bonded water.
Form 13 solid was heated in a DSC chamber to 330° C. (past the endotherm/exotherm around 300° C.), and then scanned by XRD. […] It can be concluded that the endotherm/exotherm is due to melting/crystallization events.

[2] = Competitive reslurry experiments between polymorph forms (thermodynamic stability); conditions: 3-5 days
Protocol: In order to find out the thermodynamic stability between the different forms, several competitive reslurry experiments were carried out. Form 1, Form 2, Form 2*, Form 3, Form 4, Form 4*, Form 4**, Form 5, Form 7, Form 8, Form 9, Form 10, Form 11, Form 11*, and Form 13 (10 mg for each) were mixed and slurried in 2 mL of solvent at both RT and 50° C. The solids were slurried for 3-5 days and then analyzed by XRD.

[3] = Form conversion on exposure to relative humidity / air (XRD); conditions: for XRD after exposure to air overnight: exposed to air overnight
Protocol: The hydrate lost its water below 30% RH.
Solvates 1 and 2 solids were exposed to air overnight, and then analyzed by XRD. After the analysis, the solids were dried at 50° C. under vacuum, and then analyzed by XRD again.

[4] = Form conversion on drying (XRD); conditions: for XRD after drying at 50° C. under vacuum: after air exposure overnight, dried at 50° C. under vacuum
Protocol: The Form 1 solid was dried at 75° C. under vacuum overnight, and XRD, DSC, and TGA scans were performed. […] However, the DSC scans indicated the absence of endotherm. The loss of the early peak on the DSC scan had no effect on the XRD trace, showing that the endotherm between 50-100° C. on DSC scan was due to the free solvent. The purity of the Form 13 sample was 98.8%; the KF of an undried Form 13 sample was 35.7%. […] Solvates 1 and 2 solids were exposed to air overnight, and then analyzed by XRD. After the analysis, the solids were dried at 50° C. under vacuum, and then analyzed by XRD again.

[5] = Dynamic vapor sorption (DVS) scan; conditions: for water absorption (DVS scan): at 90% RH
Excerpt: The purity of the Form 13 sample was 98.8%; the KF of an undried Form 13 sample was 35.7%.

[6] = Competitive reslurry of Form 1, Form 9 and Form 13 (stability of Form 13 vs Form 9); conditions: toluene, IPAc, n-butyl acetate; 3 days at RT and 50° C.
Protocol: In order to find out the thermodynamic stability between Form 13 and Form 9, several competitive reslurry experiments were carried out. 15 mg of Form 1, Form 9 and Form 13 solids were mixed in 1 mL of toluene, IPAc, and n-butyl acetate, and slurried for 3 days at RT and 50° C.
The residual solid was analyzed by XRD.

[7] = Reslurry experiments in various solvents (polymorph screen)
Protocol: Reslurry experiments in various solvents were performed. Approximately 30-80 mg of the starting solid (a non-stoichiometric hydrate of Form 1 having between 1% and about 20% by weight water) was slurried in 39 different solvents (pure and binary solvents; the ratio of organic solvent/water (V/V) was 95%/5%) at RT and 50° C. for 5 days. Three solvates, one non-stoichiometric hydrate, and eleven non-solvated forms were identified. […] XRD of both wet and dry samples were scanned (FIG. 12A (dry sample)).

[8] = Solubility of the starting solid by the gravimetric method; conditions: at RT and at 50° C. in all solvents tested except DMF and DMSO
[9] = Acetontrile/water (5% water), 50° C.
[10] = Heptane/water (5% water), 50° C.
[11] = Toluene/water (5% water), 50° C.
[12] = n-Butanol/water (5% water), 50° C.
[13] = n-Butyl acetate/water (5% water), 50° C.
[14] = n-Butyl acetate/water (5% water), RT
[15] = Acetontrile/water (5% water), RT

Compound: CC(C)CC(=O)Nc1cncc(-c2ccc3[nH]nc(-c4nc5c(-c6cccc(F)c6)cncc5[nH]4)c3c2)c1 [Form 2, N-(5-(3-(7-(3-fluorophenyl)-3H-imidazo[4,5-c]pyridin-2-yl)-1H-indazol-5-yl)pyridin-3-yl)-3-methylbutanamide]
form after heating (XRD) ([1]; heated in a DSC machine to 90° C.): did not change
form after heating (XRD) ([1]; heated in a DSC machine to 270° C.): converted to low crystalline solids
form after heating (XRD) ([1]; heated to 330° C.): converted to Form 9
thermodynamic stability in competitive reslurry ([2]; MeOH, EtOH, and acetone system at both RT and 50° C.): most stable form

Compound: CC(C)CC(=O)Nc1cncc(-c2ccc3[nH]nc(-c4nc5c(-c6cccc(F)c6)cncc5[nH]4)c3c2)c1 [Solvate 1, N-(5-(3-(7-(3-fluorophenyl)-3H-imidazo[4,5-c]pyridin-2-yl)-1H-indazol-5-yl)pyridin-3-yl)-3-methylbutanamide]
XRD after exposure to air overnight [3]: converted to low crystallinity
XRD after drying at 50° C. under vacuum [4]: still a low crystallinity solid

Compound: CC(C)CC(=O)Nc1cncc(-c2ccc3[nH]nc(-c4nc5c(-c6cccc(F)c6)cncc5[nH]4)c3c2)c1 [non-stoichiometric hydrate of Form 1, N-(5-(3-(7-(3-fluorophenyl)-3H-imidazo[4,5-c]pyridin-2-yl)-1H-indazol-5-yl)pyridin-3-yl)-3-methylbutanamide]
RH below which the hydrate lost its water ([3]; RH): below 30 % RH

Compound: CC(C)CC(=O)Nc1cncc(-c2ccc3[nH]nc(-c4nc5c(-c6cccc(F)c6)cncc5[nH]4)c3c2)c1 [Form 9, N-(5-(3-(7-(3-fluorophenyl)-3H-imidazo[4,5-c]pyridin-2-yl)-1H-indazol-5-yl)pyridin-3-yl)-3-methylbutanamide]
form before and after the DVS scan ([5]; DVS scan): did not change its form
water absorption (DVS scan) [5]: 0.8%
thermodynamic stability between Form 13 and Form 9 [6]: difficult to tell which one was more stable

Compound: CC(C)CC(=O)Nc1cncc(-c2ccc3[nH]nc(-c4nc5c(-c6cccc(F)c6)cncc5[nH]4)c3c2)c1 [Form 4, N-(5-(3-(7-(3-fluorophenyl)-3H-imidazo[4,5-c]pyridin-2-yl)-1H-indazol-5-yl)pyridin-3-yl)-3-methylbutanamide]
thermodynamic stability in competitive reslurry ([2]; EA at RT and 50° C.): most stable

Compound: CC(C)CC(=O)Nc1cncc(-c2ccc3[nH]nc(-c4nc5c(-c6cccc(F)c6)cncc5[nH]4)c3c2)c1 [Form 13, N-(5-(3-(7-(3-fluorophenyl)-3H-imidazo[4,5-c]pyridin-2-yl)-1H-indazol-5-yl)pyridin-3-yl)-3-methylbutanamide]
water absorption (DVS scan) [5]: 17%
form change upon drying ([4]; upon drying): converted to Form 1
form after heating (XRD) ([1]; heated in a DSC chamber to 170° C.): converted to Form 1
form after heating (XRD) ([1]; heated to 330° C.): converted to Form 9
thermodynamic stability in competitive reslurry ([2]; water at RT and 50° C.): most stable
thermodynamic stability between Form 13 and Form 9 [6]: difficult to tell which one was more stable
Form; Dry [7, 9]: Form 13
Form; Wet [7, 9]: Form 13
Form; Dry ([7]; DCM, 50° C.): Form 13
Form; Wet ([7]; DCM, 50° C.): Form 13
Form; Dry ([7]; DCM/water (5% water), 50° C.): Form 1
Form; Wet ([7]; DCM/water (5% water), 50° C.): Form 13
Form; Dry ([7]; DCM/water (5% water), RT): Form 1
Form; Wet ([7]; DCM/water (5% water), RT): Form 13
Form; Dry ([7]; Heptane, 50° C.): Form 13
Form; Wet ([7]; Heptane, 50° C.): Form 13
Form; Dry [7, 10]: Form 1
Form; Wet [7, 10]: Form 13
Form; Dry ([7]; Heptane/water (5% water), RT): Form 12
Form; Wet ([7]; Heptane/water (5% water), RT): Form 13
Form; Dry ([7]; IPAc/water (5% water), 50° C.): Form 13
Form; Wet ([7]; IPAc/water (5% water), 50° C.): Form 13
Form; Dry ([7]; MA/water (5% water), RT): Form 1
Form; Wet ([7]; MA/water (5% water), RT): Form 13
Form; Dry ([7]; MIBK/water (5% water), 50° C.): Form 1
Form; Wet ([7]; MIBK/water (5% water), 50° C.): Form 13
Form; Dry ([7]; MeOH, RT): Form 1
Form; Wet ([7]; MeOH, RT): Form 13
Form; Dry ([7]; MeOH/water (5% water), 50° C.): Form 13
Form; Wet ([7]; MeOH/water (5% water), 50° C.): Form 13
Form; Dry ([7]; MtBE/water (5% water), 50° C.): Form 13
Form; Wet ([7]; MtBE/water (5% water), 50° C.): Form 13
Form; Dry [7, 11]: Form 13
Form; Wet [7, 11]: Form 13
Form; Dry ([7]; Toluene/water (5% water), RT): Form 1
Form; Wet ([7]; Toluene/water (5% water), RT): Form 13
Form; Dry [7, 12]: Form 1
Form; Wet [7, 12]: Form 13
Form; Dry ([7]; n-Butanol/water (5% water), RT): Form 13
Form; Wet ([7]; n-Butanol/water (5% water), RT): Form 13
Form; Dry [7, 13]: Form 1
Form; Wet [7, 13]: Form 13
Form; Dry [7, 14]: Form 12
Form; Wet [7, 14]: Form 13
Form; Dry ([7]; water, 50° C.): Form 13
Form; Wet ([7]; water, 50° C.): Form 13
Form; Dry ([7]; water, RT): Form 1
Form; Wet ([7]; water, RT): Form 13

Second part, led by results:

Form; Dry [7, 15]: Form 1
Form; Wet [7, 15]: Form 12
Form; Dry ([7]; EA/water (5% water), RT): Form 1
Form; Wet ([7]; EA/water (5% water), RT): Form 12
Form; Dry ([7]; Heptane/water (5% water), RT): Form 12
Form; Wet ([7]; Heptane/water (5% water), RT): Form 13
Form; Dry ([7]; IPAc/water (5% water), RT): Form 1
Form; Wet ([7]; IPAc/water (5% water), RT): Form 12
Form; Dry ([7]; MA/water (5% water), 50° C.): Form 4
Form; Wet ([7]; MA/water (5% water), 50° C.): Form 12
Form; Dry ([7]; MIBK/water (5% water), RT): Form 1
Form; Wet ([7]; MIBK/water (5% water), RT): Form 12
Form; Dry ([7]; MeOH/water (5% water), RT): Form 1
Form; Wet ([7]; MeOH/water (5% water), RT): Form 12
Form; Dry ([7]; MtBE/water (5% water), RT): Form 1
Form; Wet ([7]; MtBE/water (5% water), RT): Form 12
Form; Dry [7, 14]: Form 12
Form; Wet [7, 14]: Form 13
Compound: CC(C)CC(=O)Nc1cncc(-c2ccc3[nH]nc(-c4nc5c(-c6cccc(F)c6)cncc5[nH]4)c3c2)c1 [Form 12, N-(5-(3-(7-(3-fluorophenyl)-3H-imidazo[4,5-c]pyridin-2-yl)-1H-indazol-5-yl)pyridin-3-yl)-3-methylbutanamide]

Solubility (in words) [8]: low solubility
Compound: CC(C)CC(=O)Nc1cncc(-c2ccc3[nH]nc(-c4nc5c(-c6cccc(F)c6)cncc5[nH]4)c3c2)c1 [starting solid, N-(5-(3-(7-(3-fluorophenyl)-3H-imidazo[4,5-c]pyridin-2-yl)-1H-indazol-5-yl)pyridin-3-yl)-3-methylbutanamide]

water absorption (DVS scan) [5]: 17%
change of XRD scan after drying ([4]; dried at 75° C. under vacuum overnight): no change
form after heating (XRD) ([1]; heated in a DSC chamber to 305° C.): converted to Form 9
Compound: CC(C)CC(=O)Nc1cncc(-c2ccc3[nH]nc(-c4nc5c(-c6cccc(F)c6)cncc5[nH]4)c3c2)c1 [Form 1, N-(5-(3-(7-(3-fluorophenyl)-3H-imidazo[4,5-c]pyridin-2-yl)-1H-indazol-5-yl)pyridin-3-yl)-3-methylbutanamide]
form change when exposed to air ([3]; exposed to air): converted to a non-stoichiometric hydrate of Form 1

XRD after exposure to air overnight [3]: changed a little
XRD after drying at 50° C. under vacuum [4]: remained the same
Compound: CC(C)CC(=O)Nc1cncc(-c2ccc3[nH]nc(-c4nc5c(-c6cccc(F)c6)cncc5[nH]4)c3c2)c1 [Solvate 2, N-(5-(3-(7-(3-fluorophenyl)-3H-imidazo[4,5-c]pyridin-2-yl)-1H-indazol-5-yl)pyridin-3-yl)-3-methylbutanamide]
